Reference: US20240368177A1, “5-AMINO-6,8-DIHYDRO-1H-FURO[3,4-d]PYRROLO[3,2-b]PYRIDINE-2-CARBOXAMIDE DERIVATIVES AS MTA-COOPERATIVE INHIBITORS OF PRMT5” (BeiGene Switzerland GmbH, priority 2023, published 2024)

Experiments:
[1] = system: HCT116-MTAP-KO; assay: Cell killing in HCT116 isogenic pair (Cell Titer-Glo viability), MTAP knock-out cells; type: cell-based, human; conditions: Homo sapiens, HCT-116, 144 h, 6 days incubation, 0-10 μM, * = more than 50% viability inhibition at tested concentration without a full curve
Text: (§1) HCT116 cell line (ATCC, CCL-247) was isolated from the colon of an adult with colon cancer. It has a mutation in codon 13 of the ras proto-oncogene and can be used as a positive control for PCR assays of mutation in this codon. HCT116-MTAP-KO was knocked-out-MTAP-gene based HCT116, and a single clone was passed for this assay. HCT116-mock-RNA-KO was knocked-out-mock-gene based HCT116 with MTAP wildtype genotype. The base medium for HCT116 isogenic pair is RPMI 1640, HEPES (Gibco, 22400105). To make the complete growth medium, added the following components to the base medium: fetal bovine serum to a final concentration of 10% (Gibco, 10099-141C). The cell line was grown in a humidified 5% CO2 atmosphere at 37° C. and regularly tested for the presence of mycoplasma with MpcoAlert™ PLUS Mycoplasma Detection Kit (Lonzak LT07-710).
(§2) • Seeded HCT116-mock-RNA-KO (4E2/well) or HCT116-MTAP-KO (4E2/well) cells into a 96-well plate (Greiner: 655090), 100 μL/well. • Incubated at 37° C., 5% CO2, overnight. • Added 50 μL fresh growth medium containing serial dilution of test compounds for a final test compound concentration of 0-10 μM to each well. • Incubated at 37° C., 5% CO2, 6 days. • The cell viability was detected by Cell Titer-Glo (Promega, G7573). Added 70 μL of CeliTiter-Glo® reagent in each well. • Incubated at room temperature for 10 minutes to stabilize luminescent signal. • Analyzed with Microplate Reader (TECAN, SPARK) and fit IC50 using Prism® 9.

[2] = system: HCT116-mock-RNA-KO; assay: Cell killing in HCT116 isogenic pair (Cell Titer-Glo viability), mock knock-out cells with MTAP wildtype genotype; type: cell-based, human; conditions: Homo sapiens, HCT-116, 144 h, 6 days incubation, 0-10 μM
Text: as §1, §2

Compound | IC50 [1] [nM] | IC50 [2] [nM]
Nc1nc2cc(C(=O)N(Cc3ccc(-c4c(F)cncc4F)cn3)[C@@H]3CCCc4cccnc43)[nH]c2c2c1COC2 [Example 1, (R)-5-amino-N-((3′,5′-difluoro-[3,4′-bipyridin]-6-yl)methyl)-N-(5,6,7,8-tetrahydroquinolin-8-yl)-6,8-dihydro-1H-furo[3,4-d]pyrrolo[3,2-b]pyridine-2-carboxamide] | < 1.5 | 4.6
Nc1nc2cc(C(=O)N(Cc3ccc(-c4c(F)cccc4F)cn3)[C@@H]3CCCc4cccnc43)[nH]c2c2c1COC2 [Example 2, (R)-5-amino-N-((5-(2,6-difluorophenyl)pyridin-2-yl)methyl)-N-(5,6,7,8-tetrahydroquinolin-8-yl)-6,8-dihydro-1H-furo[3,4-d]pyrrolo[3,2-b]pyridine-2-carboxamide] | 3.3 | 23
Nc1nc2cc(C(=O)N(Cc3c(F)cccc3F)Cc3c(F)cccc3F)[nH]c2c2c1COC2 [Example 3, 5-amino-N,N-bis(2,6-difluorobenzyl)-6,8-dihydro-1H-furo[3,4-d]pyrrolo[3,2-b]pyridine-2-carboxamide] | 2.4 | 221
CO[C@@H]1CCOC[C@H]1N(Cc1ccc(-c2c(F)cccc2F)cn1)C(=O)c1cc2nc(N)c3c(c2[nH]1)COC3 [Example 4, 5-amino-N-((5-(2,6-difluorophenyl)pyridin-2-yl)methyl)-N-((3R,4R)-4-methoxytetrahydro-2H-pyran-3-yl)-6,8-dihydro-1H-furo[3,4-d]pyrrolo[3,2-b]pyridine-2-carboxamide] | 2.3 | 99
Nc1nc2cc(C(=O)N(Cc3c(F)cccc3F)[C@@H]3CCCc4cccnc43)[nH]c2c2c1COC2 [Example 5, (R)-5-amino-N-(2,6-difluorobenzyl)-N-(5,6,7,8-tetrahydroquinolin-8-yl)-6,8-dihydro-1H-furo[3,4-d]pyrrolo[3,2-b]pyridine-2-carboxamide] | 4 | 76
Nc1nc2cc(C(=O)N(Cc3ccc(-c4c(F)cccc4F)cc3F)[C@@H]3CCCc4cccnc43)[nH]c2c2c1COC2 [Example 6, (R)-5-amino-N-(5,6,7,8-tetrahydroquinolin-8-yl)-N-((2′,3,6′-trifluoro-[1,1′-biphenyl]-4-yl)methyl)-6,8-dihydro-1H-furo[3,4-d]pyrrolo[3,2-b]pyridine-2-carboxamide] | 11 | 40
Nc1nc2cc(C(=O)N(Cc3ncccc3F)Cc3ncccc3F)[nH]c2c2c1COC2 [Example 7, 5-amino-N,N-bis((3-fluoropyridin-2-yl)methyl)-6,8-dihydro-1H-furo[3,4-d]pyrrolo[3,2-b]pyridine-2-carboxamide] | 30 | 3140
COCC(C)N(Cc1c(F)cccc1F)C(=O)c1cc2nc(N)c3c(c2[nH]1)COC3 (centres unmarked) [Example 8, 5-amino-N-(2,6-difluorobenzyl)-N-(1-methoxypropan-2-yl)-6,8-dihydro-1H-furo[3,4-d]pyrrolo[3,2-b]pyridine-2-carboxamide] | 34 | 2750
COCC(COC)N(Cc1c(F)cccc1F)C(=O)c1cc2nc(N)c3c(c2[nH]1)COC3 [Example 9, 5-amino-N-(2,6-difluorobenzyl)-N-(1,3-dimethoxypropan-2-yl)-6,8-dihydro-1H-furo[3,4-d]pyrrolo[3,2-b]pyridine-2-carboxamide] | 46 | 3440
Nc1nc2cc(C(=O)N(Cc3c(F)cncc3F)[C@@H]3CCCc4cccnc43)[nH]c2c2c1COC2 [Example 10, (R)-5-amino-N-((3,5-difluoropyridin-4-yl)methyl)-N-(5,6,7,8-tetrahydroquinolin-8-yl)-6,8-dihydro-1H-furo[3,4-d]pyrrolo[3,2-b]pyridine-2-carboxamide] | 4.6 | 247
N#Cc1cnccc1-c1ccc(CN(C(=O)c2cc3nc(N)c4c(c3[nH]2)COC4)[C@@H]2CCCc3cccnc32)nc1 [Example 11, (R)-5-amino-N-((3′-cyano-[3,4′-bipyridin]-6-yl)methyl)-N-(5,6,7,8-tetrahydroquinolin-8-yl)-6,8-dihydro-1H-furo[3,4-d]pyrrolo[3,2-b]pyridine-2-carboxamide] | 3.8 | 69
Nc1nc2cc(C(=O)N(Cc3ccc(-c4c(F)cccc4F)cn3)[C@@H]3CCOc4ccccc43)[nH]c2c2c1COC2 [Example 12, 5-amino-N-(chroman-4-yl)-N-((5-(2,6-difluorophenyl)pyridin-2-yl)methyl)-6,8-dihydro-1H-furo[3,4-d]pyrrolo[3,2-b]pyridine-2-carboxamide] | 29 | 1910
Nc1nc2cc(C(=O)N(Cc3ccc(-c4c(F)cccc4F)cn3)Cc3c(F)cccc3F)[nH]c2c2c1COC2 [Example 13, 5-amino-N-(2,6-difluorobenzyl)-N-((5-(2,6-difluorophenyl)pyridin-2-yl)methyl)-6,8-dihydro-1H-furo[3,4-d]pyrrolo[3,2-b]pyridine-2-carboxamide] | 4.6 | 251
CO[C@@H]1CCOC[C@H]1N(Cc1ccc(-c2c(F)cccc2F)cc1F)C(=O)c1cc2nc(N)c3c(c2[nH]1)COC3 [Example 14, 5-amino-N-((3R,4R)-4-methoxytetrahydro-2H-pyran-3-yl)-N-((2′,3,6′-trifluoro-[1,1′-biphenyl]-4-yl)methyl)-6,8-dihydro-1H-furo[3,4-d]pyrrolo[3,2-b]pyridine-2-carboxamide] | < 1.5 | 554
CO[C@@H]1CCOC[C@H]1N(Cc1ccc(-c2c(F)cncc2F)cn1)C(=O)c1cc2nc(N)c3c(c2[nH]1)COC3 [Example 15, 5-amino-N-((3′,5′-difluoro-[3,4′-bipyridin]-6-yl)methyl)-N-((3R,4R)-4-methoxytetrahydro-2H-pyran-3-yl)-6,8-dihydro-1H-furo[3,4-d]pyrrolo[3,2-b]pyridine-2-carboxamide] | 8.1 | 225
COCC(COC)N(Cc1ccc(-c2c(F)cccc2F)cn1)C(=O)c1cc2nc(N)c3c(c2[nH]1)COC3 [Example 16, 5-amino-N-((5-(2,6-difluorophenyl)pyridin-2-yl)methyl)-N-(1,3-dimethoxypropan-2-yl)-6,8-dihydro-1H-furo[3,4-d]pyrrolo[3,2-b]pyridine-2-carboxamide] | 1 | 165
C[C@@H](c1ncccn1)N(Cc1ccc(-c2c(F)cccc2F)cn1)C(=O)c1cc2nc(N)c3c(c2[nH]1)COC3 [Example 17, (S)-5-amino-N-((5-(2,6-difluorophenyl)pyridin-2-yl)methyl)-N-(1-(pyrimidin-2-yl)ethyl)-6,8-dihydro-1H-furo[3,4-d]pyrrolo[3,2-b]pyridine-2-carboxamide] | 8.2 | 1050
C[C@H](c1ncccn1)N(Cc1ccc(-c2c(F)cccc2F)cn1)C(=O)c1cc2nc(N)c3c(c2[nH]1)COC3 [Example 18, (R)-5-amino-N-((5-(2,6-difluorophenyl)pyridin-2-yl)methyl)-N-(1-(pyrimidin-2-yl)ethyl)-6,8-dihydro-1H-furo[3,4-d]pyrrolo[3,2-b]pyridine-2-carboxamide] | 1.8 | 96
Nc1nc2cc(C(=O)N(Cc3ccc(-c4c(F)cccc4F)cc3F)[C@@H]3CCOc4cccnc43)[nH]c2c2c1COC2 [Example 19, (R)-5-amino-N-(3,4-dihydro-2H-pyrano[3,2-b]pyridin-4-yl)-N-((2′,3,6′-trifluoro-[1,1′-biphenyl]-4-yl)methyl)-6,8-dihydro-1H-furo[3,4-d]pyrrolo[3,2-b]pyridine-2-carboxamide] | < 1.5 | 185
Nc1nc2cc(C(=O)N(Cc3ccc(-c4c(F)cccc4F)cc3F)[C@H]3CCOc4cccnc43)[nH]c2c2c1COC2 [Example 20, (S)-5-amino-N-(3,4-dihydro-2H-pyrano[3,2-b]pyridin-4-yl)-N-((2′,3,6′-trifluoro-[1,1′-biphenyl]-4-yl)methyl)-6,8-dihydro-1H-furo[3,4-d]pyrrolo[3,2-b]pyridine-2-carboxamide] | 658 | 4000
N#Cc1cc(F)c(CN(C(=O)c2cc3nc(N)c4c(c3[nH]2)COC4)[C@@H]2CCCc3cccnc32)c(F)c1 [Example 21, (R)-5-amino-N-(4-cyano-2,6-difluorobenzyl)-N-(5,6,7,8-tetrahydroquinolin-8-yl)-6,8-dihydro-1H-furo[3,4-d]pyrrolo[3,2-b]pyridine-2-carboxamide] | < 1.5 | 7
N#Cc1cc(F)c(CN(Cc2c(F)cccc2F)C(=O)c2cc3nc(N)c4c(c3[nH]2)COC4)c(F)c1 [Example 22, 5-amino-N-(4-cyano-2,6-difluorobenzyl)-N-(2,6-difluorobenzyl)-6,8-dihydro-1H-furo[3,4-d]pyrrolo[3,2-b]pyridine-2-carboxamide] | < 1.5 | 11
